Measurements as given in ChEMBL document CHEMBL4507274 (2021).

Assays:
[1] = molecular target: Interferon-induced, double-stranded RNA-activated protein kinase (Homo sapiens) (UniProt P19525); conditions: Compound concentration 100.0 nM
[2] = molecular target: Calcium/calmodulin-dependent protein kinase type 1G (Homo sapiens) (UniProt Q96NX5); conditions: Compound concentration 100.0 nM
[3] = molecular target: LIM domain kinase 1 (Homo sapiens) (UniProt P53667); conditions: Compound concentration 100.0 nM
[4] = molecular target: Mast/stem cell growth factor receptor Kit (Homo sapiens) (UniProt P10721); conditions: Compound concentration 100.0 nM
[5] = molecular target: Serine/threonine-protein kinase ULK1 (Homo sapiens) (UniProt O75385); conditions: Compound concentration 100.0 nM
[6] = molecular target: Mitogen-activated protein kinase kinase kinase 11 (Homo sapiens) (UniProt Q16584); conditions: Compound concentration 100.0 nM
[7] = molecular target: 5-hydroxytryptamine receptor 7 (Homo sapiens) (UniProt P34969); conditions: Compound concentration 10.0 uM
[8] = molecular target: Phosphatidylinositol 4,5-bisphosphate 3-kinase catalytic subunit gamma isoform (Homo sapiens) (UniProt P48736); conditions: Compound concentration 100.0 nM
[9] = molecular target: Tyrosine-protein kinase ABL1 (Homo sapiens) (UniProt P00519); conditions: Compound concentration 100.0 nM
[10] = molecular target: Serine/threonine-protein kinase MRCK gamma (Homo sapiens) (UniProt Q6DT37); conditions: Compound concentration 100.0 nM
[11] = system: Hepatocyte growth factor receptor (Homo sapiens), P08581 [Y1235D]; conditions: Compound concentration 100.0 nM
[12] = molecular target: Serine/threonine-protein kinase mTOR (Homo sapiens) (UniProt P42345); conditions: Compound concentration 100.0 nM
[13] = molecular target: Tyrosine-protein kinase HCK (Homo sapiens) (UniProt P08631); conditions: Compound concentration 100.0 nM
[14] = system: Tyrosine-protein kinase ABL1 (Homo sapiens), P00519 [Q252H]; conditions: Compound concentration 100.0 nM
[15] = molecular target: MAP/microtubule affinity-regulating kinase 4 (Homo sapiens) (UniProt Q96L34); conditions: Compound concentration 100.0 nM
[16] = molecular target: Bone morphogenetic protein receptor type-1B (Homo sapiens) (UniProt O00238); conditions: Compound concentration 100.0 nM
[17] = molecular target: Homeodomain-interacting protein kinase 4 (Homo sapiens) (UniProt Q8NE63); conditions: Compound concentration 100.0 nM
[18] = molecular target: Wee1-like protein kinase 2 (Homo sapiens) (UniProt P0C1S8); conditions: Compound concentration 100.0 nM
[19] = molecular target: STE20-like serine/threonine-protein kinase (Homo sapiens) (UniProt Q9H2G2); conditions: Compound concentration 100.0 nM
[20] = system: Tyrosine-protein kinase ABL1 (Homo sapiens), P00519 [H396P]; conditions: Compound concentration 100.0 nM
[21] = molecular target: cGMP-dependent protein kinase 1 (Homo sapiens) (UniProt Q13976); conditions: Compound concentration 100.0 nM
[22] = molecular target: Serine/threonine-protein kinase ULK3 (Homo sapiens) (UniProt Q6PHR2); conditions: Compound concentration 100.0 nM
[23] = molecular target: Ribosomal protein S6 kinase alpha-1 (Homo sapiens) (UniProt Q15418); conditions: Compound concentration 100.0 nM
[24] = molecular target: Mast/stem cell growth factor receptor Kit (Homo sapiens) (UniProt P10721); conditions: Compound concentration 100.0 nM; remark: listed apart in the source
[25] = molecular target: Fibroblast growth factor receptor 3 (Homo sapiens) (UniProt P22607); conditions: Compound concentration 100.0 nM
[26] = molecular target: Interleukin-1 receptor-associated kinase 4 (Homo sapiens) (UniProt Q9NWZ3); conditions: Compound concentration 100.0 nM
[27] = molecular target: Mitogen-activated protein kinase 4 (Homo sapiens) (UniProt P31152); conditions: Compound concentration 100.0 nM
[28] = molecular target: Calcium/calmodulin-dependent protein kinase type II subunit delta (Homo sapiens) (UniProt Q13557); conditions: Compound concentration 100.0 nM
[29] = molecular target: Platelet-derived growth factor receptor alpha (Homo sapiens) (UniProt P16234); conditions: Compound concentration 100.0 nM
[30] = molecular target: Casein kinase I isoform delta (Homo sapiens) (UniProt P48730); conditions: Compound concentration 100.0 nM
[31] = molecular target: Mitogen-activated protein kinase 6 (Homo sapiens) (UniProt Q16659); conditions: Compound concentration 100.0 nM
[32] = molecular target: Eukaryotic translation initiation factor 2-alpha kinase 1 (Homo sapiens) (UniProt Q9BQI3); conditions: Compound concentration 100.0 nM
[33] = molecular target: Muscarinic acetylcholine receptor M2 (Homo sapiens) (UniProt P08172); conditions: Compound concentration 10.0 uM
[34] = molecular target: 3-phosphoinositide-dependent protein kinase 1 (Homo sapiens) (UniProt O15530); conditions: Compound concentration 100.0 nM
[35] = system: Phosphatidylinositol 4,5-bisphosphate 3-kinase catalytic subunit alpha isoform (Homo sapiens), P42336 [C420R]; conditions: Compound concentration 100.0 nM
[36] = molecular target: Serine/threonine-protein kinase Nek11 (Homo sapiens) (UniProt Q8NG66); conditions: Compound concentration 100.0 nM
[37] = molecular target: Serine/threonine-protein kinase PAK 5 (Homo sapiens) (UniProt Q9P286); conditions: Compound concentration 100.0 nM
[38] = system: Phosphatidylinositol 4,5-bisphosphate 3-kinase catalytic subunit alpha isoform (Homo sapiens), P42336 [E545A]; conditions: Compound concentration 100.0 nM
[39] = molecular target: T1, Aurora kinase A (Homo sapiens) (UniProt O14965); conditions: Compound concentration 100.0 nM
T1 sequence (whole entry): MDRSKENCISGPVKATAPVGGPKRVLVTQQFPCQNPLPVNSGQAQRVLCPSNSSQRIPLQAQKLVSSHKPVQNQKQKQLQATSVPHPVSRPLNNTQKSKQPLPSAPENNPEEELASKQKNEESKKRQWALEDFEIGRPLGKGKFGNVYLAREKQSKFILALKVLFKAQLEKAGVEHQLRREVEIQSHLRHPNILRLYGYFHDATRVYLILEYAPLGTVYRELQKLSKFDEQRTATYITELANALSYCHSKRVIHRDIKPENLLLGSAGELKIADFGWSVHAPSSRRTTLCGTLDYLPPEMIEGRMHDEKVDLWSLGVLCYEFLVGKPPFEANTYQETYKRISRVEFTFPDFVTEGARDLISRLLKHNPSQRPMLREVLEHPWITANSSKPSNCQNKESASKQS

Mast/stem cell growth factor receptor Kit (Homo sapiens), sequence (P10721 whole entry): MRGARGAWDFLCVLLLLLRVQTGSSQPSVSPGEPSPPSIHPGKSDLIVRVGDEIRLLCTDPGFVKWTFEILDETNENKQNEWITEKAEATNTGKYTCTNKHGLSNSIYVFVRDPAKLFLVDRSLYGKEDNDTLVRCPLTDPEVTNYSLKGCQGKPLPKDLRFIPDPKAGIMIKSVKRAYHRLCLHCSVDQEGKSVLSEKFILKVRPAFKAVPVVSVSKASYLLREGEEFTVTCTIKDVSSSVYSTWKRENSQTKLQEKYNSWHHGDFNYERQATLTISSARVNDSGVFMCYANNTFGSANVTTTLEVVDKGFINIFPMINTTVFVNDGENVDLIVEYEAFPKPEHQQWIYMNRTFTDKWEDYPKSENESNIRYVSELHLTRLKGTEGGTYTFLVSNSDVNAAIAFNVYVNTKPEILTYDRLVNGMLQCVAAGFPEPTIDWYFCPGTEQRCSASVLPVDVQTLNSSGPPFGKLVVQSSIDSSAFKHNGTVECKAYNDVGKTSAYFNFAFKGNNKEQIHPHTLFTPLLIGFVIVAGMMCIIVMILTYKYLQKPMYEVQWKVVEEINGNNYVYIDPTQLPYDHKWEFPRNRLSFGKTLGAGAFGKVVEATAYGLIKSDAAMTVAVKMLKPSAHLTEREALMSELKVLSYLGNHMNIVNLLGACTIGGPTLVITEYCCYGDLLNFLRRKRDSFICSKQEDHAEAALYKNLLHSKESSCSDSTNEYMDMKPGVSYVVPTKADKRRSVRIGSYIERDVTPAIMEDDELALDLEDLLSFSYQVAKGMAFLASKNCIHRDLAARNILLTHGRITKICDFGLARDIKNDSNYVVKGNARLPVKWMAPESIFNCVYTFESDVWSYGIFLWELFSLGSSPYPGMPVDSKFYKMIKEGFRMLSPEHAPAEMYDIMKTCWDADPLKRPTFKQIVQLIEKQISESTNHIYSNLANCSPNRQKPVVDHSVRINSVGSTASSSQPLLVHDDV
Eukaryotic translation initiation factor 2-alpha kinase 1 (Homo sapiens), sequence (Q9BQI3 whole entry): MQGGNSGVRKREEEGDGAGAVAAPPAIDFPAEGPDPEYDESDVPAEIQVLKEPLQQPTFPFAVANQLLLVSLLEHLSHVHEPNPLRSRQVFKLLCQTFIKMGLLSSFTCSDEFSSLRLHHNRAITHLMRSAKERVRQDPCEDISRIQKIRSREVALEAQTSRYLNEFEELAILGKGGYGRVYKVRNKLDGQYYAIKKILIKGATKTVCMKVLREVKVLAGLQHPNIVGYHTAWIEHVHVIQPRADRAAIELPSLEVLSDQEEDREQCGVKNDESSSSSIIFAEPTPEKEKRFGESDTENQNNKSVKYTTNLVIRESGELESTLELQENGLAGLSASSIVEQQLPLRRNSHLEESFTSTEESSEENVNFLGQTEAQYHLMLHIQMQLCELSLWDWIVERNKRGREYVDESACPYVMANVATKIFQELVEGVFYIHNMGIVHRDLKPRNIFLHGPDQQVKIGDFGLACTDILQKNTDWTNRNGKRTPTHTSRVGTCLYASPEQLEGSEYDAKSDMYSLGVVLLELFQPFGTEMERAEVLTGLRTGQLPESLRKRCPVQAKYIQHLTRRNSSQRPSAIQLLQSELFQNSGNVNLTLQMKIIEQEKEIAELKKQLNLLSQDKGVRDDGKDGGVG
STE20-like serine/threonine-protein kinase (Homo sapiens), sequence (Q9H2G2 whole entry, looked up): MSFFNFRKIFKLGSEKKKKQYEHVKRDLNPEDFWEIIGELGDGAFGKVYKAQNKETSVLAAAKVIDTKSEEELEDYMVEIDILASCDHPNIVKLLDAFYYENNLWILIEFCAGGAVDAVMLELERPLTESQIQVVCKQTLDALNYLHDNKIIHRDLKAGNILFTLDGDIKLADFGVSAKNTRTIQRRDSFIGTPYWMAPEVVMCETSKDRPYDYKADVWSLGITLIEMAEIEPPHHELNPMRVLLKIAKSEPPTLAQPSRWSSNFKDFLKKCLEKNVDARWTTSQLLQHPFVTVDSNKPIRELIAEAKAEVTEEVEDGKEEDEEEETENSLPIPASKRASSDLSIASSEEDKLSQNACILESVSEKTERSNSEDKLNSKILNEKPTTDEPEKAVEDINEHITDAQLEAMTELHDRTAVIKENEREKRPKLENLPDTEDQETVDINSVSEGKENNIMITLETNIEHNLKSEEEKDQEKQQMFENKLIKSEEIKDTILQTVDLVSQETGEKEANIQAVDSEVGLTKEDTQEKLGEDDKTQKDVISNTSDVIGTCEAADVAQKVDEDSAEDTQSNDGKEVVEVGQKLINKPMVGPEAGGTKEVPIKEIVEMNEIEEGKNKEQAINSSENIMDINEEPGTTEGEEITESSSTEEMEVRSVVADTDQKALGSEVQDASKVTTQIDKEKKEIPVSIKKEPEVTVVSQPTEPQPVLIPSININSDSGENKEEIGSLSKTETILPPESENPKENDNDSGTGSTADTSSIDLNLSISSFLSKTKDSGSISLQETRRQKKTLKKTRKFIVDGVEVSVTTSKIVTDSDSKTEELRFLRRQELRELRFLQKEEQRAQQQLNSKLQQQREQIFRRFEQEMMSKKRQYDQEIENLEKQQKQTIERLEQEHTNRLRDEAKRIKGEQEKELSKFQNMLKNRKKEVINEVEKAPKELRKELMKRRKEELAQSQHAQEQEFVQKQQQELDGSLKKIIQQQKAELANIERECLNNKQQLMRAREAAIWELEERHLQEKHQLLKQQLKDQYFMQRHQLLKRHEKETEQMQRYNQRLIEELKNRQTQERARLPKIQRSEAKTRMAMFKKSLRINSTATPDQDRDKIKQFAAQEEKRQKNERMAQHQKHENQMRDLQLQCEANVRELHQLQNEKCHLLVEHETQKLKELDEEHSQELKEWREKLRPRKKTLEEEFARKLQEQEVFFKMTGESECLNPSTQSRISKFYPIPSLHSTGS
Ribosomal protein S6 kinase alpha-1 (Homo sapiens), sequence (Q15418 whole entry): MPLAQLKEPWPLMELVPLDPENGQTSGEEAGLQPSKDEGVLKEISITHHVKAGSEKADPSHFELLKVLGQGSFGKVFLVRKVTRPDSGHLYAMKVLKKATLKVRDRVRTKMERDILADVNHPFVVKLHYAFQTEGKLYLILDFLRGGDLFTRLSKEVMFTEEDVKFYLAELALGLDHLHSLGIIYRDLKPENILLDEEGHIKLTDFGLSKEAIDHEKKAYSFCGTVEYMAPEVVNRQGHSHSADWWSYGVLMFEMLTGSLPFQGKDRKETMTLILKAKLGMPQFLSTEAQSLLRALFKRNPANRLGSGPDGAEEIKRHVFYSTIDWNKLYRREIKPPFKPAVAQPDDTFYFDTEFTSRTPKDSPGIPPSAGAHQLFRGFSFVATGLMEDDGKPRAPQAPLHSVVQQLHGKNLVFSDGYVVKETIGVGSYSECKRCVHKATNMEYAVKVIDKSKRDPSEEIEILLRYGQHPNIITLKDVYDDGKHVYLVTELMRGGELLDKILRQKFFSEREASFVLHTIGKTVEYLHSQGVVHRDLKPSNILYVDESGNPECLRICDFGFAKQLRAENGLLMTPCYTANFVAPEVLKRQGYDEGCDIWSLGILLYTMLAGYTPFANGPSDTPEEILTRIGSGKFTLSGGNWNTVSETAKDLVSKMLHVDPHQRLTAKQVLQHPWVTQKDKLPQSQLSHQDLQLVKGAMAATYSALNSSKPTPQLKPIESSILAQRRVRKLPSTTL
Interferon-induced, double-stranded RNA-activated protein kinase (Homo sapiens), sequence (P19525 whole entry): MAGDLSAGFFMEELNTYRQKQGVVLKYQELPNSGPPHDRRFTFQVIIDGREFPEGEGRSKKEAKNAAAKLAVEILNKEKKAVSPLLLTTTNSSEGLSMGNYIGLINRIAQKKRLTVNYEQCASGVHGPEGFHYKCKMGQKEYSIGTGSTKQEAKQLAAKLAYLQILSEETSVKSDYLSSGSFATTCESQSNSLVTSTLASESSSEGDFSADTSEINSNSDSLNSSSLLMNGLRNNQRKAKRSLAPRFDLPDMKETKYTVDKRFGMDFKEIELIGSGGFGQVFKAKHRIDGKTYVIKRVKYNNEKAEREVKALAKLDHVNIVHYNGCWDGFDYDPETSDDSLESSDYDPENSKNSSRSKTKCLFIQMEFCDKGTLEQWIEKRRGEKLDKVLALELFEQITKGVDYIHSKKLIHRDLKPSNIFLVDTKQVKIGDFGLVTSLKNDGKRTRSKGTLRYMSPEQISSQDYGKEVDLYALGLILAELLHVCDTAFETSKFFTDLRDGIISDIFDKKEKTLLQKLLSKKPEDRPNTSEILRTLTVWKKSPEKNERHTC
LIM domain kinase 1 (Homo sapiens), sequence (P53667 whole entry, looked up, the tested form may be a part): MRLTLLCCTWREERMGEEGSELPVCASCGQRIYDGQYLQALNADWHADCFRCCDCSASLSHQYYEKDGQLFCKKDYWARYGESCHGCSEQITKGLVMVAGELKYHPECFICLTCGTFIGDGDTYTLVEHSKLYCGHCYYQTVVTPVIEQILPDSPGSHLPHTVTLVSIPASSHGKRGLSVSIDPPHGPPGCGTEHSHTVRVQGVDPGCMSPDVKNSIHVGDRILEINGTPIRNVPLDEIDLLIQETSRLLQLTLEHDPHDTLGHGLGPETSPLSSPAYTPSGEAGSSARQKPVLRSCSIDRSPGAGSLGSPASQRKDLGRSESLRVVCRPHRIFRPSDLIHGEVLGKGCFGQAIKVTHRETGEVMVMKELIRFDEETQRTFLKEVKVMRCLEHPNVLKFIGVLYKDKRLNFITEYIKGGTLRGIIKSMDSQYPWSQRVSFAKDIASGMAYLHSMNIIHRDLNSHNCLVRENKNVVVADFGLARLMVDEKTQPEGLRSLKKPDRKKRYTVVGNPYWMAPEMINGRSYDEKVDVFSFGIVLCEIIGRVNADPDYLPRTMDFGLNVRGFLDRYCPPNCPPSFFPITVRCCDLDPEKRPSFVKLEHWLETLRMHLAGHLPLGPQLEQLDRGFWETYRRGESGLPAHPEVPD

SMILES | residual activity [1] [%] | residual activity [2] [%] | residual activity [3] [%] | residual activity [4] [%] | residual activity [5] [%] | residual activity [6] [%] | inhibition [7] [%] | residual activity [8] [%] | residual activity [9] [%] | residual activity [10] [%] | residual activity [11] [%] | residual activity [12] [%] | residual activity [13] [%] | residual activity [14] [%] | residual activity [15] [%] | residual activity [16] [%] | residual activity [17] [%] | residual activity [18] [%] | residual activity [19] [%] | residual activity [20] [%] | also measured
Cn1cc(Cl)c2c(Oc3c(F)cc(Nc4cc(Cl)nc(N)n4)cc3F)ccnc21 [BAY-4900] | 100 | 100 | 90 | 95 | 93 | 100 | -1.63 | 82 | 89 | 100 | 91 | 85 | 100 | 78 | 100 | 86 | 100 | 93 | 98 | 84 | residual activity [21]: 83%; residual activity [22]: 85%; residual activity [23]: 86%; residual activity [24]: 78%; residual activity [25]: 99%; residual activity [26]: 90%; residual activity [27]: 100%; residual activity [28]: 95%; residual activity [29]: 98%; residual activity [30]: 100%; residual activity [31]: 100%; residual activity [32]: 100%; inhibition [33]: 0.85%; residual activity [34]: 61%; residual activity [35]: 82%; residual activity [36]: 85%; residual activity [37]: 90%; residual activity [38]: 88%; residual activity [39]: 100%
Cc1c[nH]c2nccc(Oc3c(F)cc(Nc4cc(Cl)nc(N)n4)cc3F)c12 [BAY-549] | 100 | 97 | 87 | 75 | 92 | 100 | 9.29 | 88 | 89 | 68 | 88 | 85 | 100 | 85 | 100 | 68 | 100 | 91 | 97 | 82 | residual activity [21]: 49%; residual activity [22]: 88%; residual activity [23]: 91%; residual activity [24]: 77%; residual activity [25]: 100%; residual activity [26]: 85%; residual activity [27]: 81%; residual activity [28]: 90%; residual activity [29]: 84%; residual activity [30]: 100%; residual activity [31]: 95%; residual activity [32]: 77%; inhibition [33]: 7.41%; residual activity [34]: 100%; residual activity [35]: 89%; residual activity [36]: 75%; residual activity [37]: 92%; residual activity [38]: 88%; residual activity [39]: 94%
